Assay results from PubChem BioAssay (NCI).
Several values for one entry are separate records, joined by “and”; a condition that tells them apart may be missing. Equal entries are not always repeated.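 Interpolation was linear, between the two tested concentrations surrounding the appropriate level; five concentrations were tested over 48 hours in 96-well plates. The concentration for 50% growth inhibition is given as GI50. Definition used: TGI = concentration required for complete inhibition of growth.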

How the values were obtained:
Assay in all cases: inhibition of tumour cell growth, NCI panel, 48 h
SN12C renal = tested on: SN12C renal
HT29 colon = tested on: HT29 colon
OVCAR-4 ovarian = tested on: OVCAR-4 ovarian
COLO 205 colon = tested on: COLO 205 colon
HCT-116 colon = tested on: HCT-116 colon
MOLT-4 leukemia = tested on: MOLT-4 leukemia
SK-MEL-5 melanoma = tested on: SK-MEL-5 melanoma
EKVX NSCLC = tested on: EKVX NSCLC
K-562 leukemia = tested on: K-562 leukemia
UACC-257 melanoma = tested on: UACC-257 melanoma

Row | Compound | TGI (SN12C renal) [nM] | TGI (HT29 colon) [nM] | TGI (OVCAR-4 ovarian) [nM] | TGI (COLO 205 colon) [nM] | TGI (HCT-116 colon) [nM] | TGI (MOLT-4 leukemia) [nM] | TGI (SK-MEL-5 melanoma) | TGI (EKVX NSCLC) [nM] | TGI (K-562 leukemia) [nM] | TGI (UACC-257 melanoma) [nM] | GI50 (SN12C renal) | GI50 (HT29 colon) | GI50 (OVCAR-4 ovarian) [nM] | GI50 (COLO 205 colon) [nM] | GI50 (HCT-116 colon) | GI50 (MOLT-4 leukemia) | GI50 (SK-MEL-5 melanoma) | GI50 (EKVX NSCLC) | GI50 (K-562 leukemia) | GI50 (UACC-257 melanoma) [nM]
1 | O=C(O)CNCc1c2ccccc2nc2ccccc12 | > 100000 | > 84800 | > 89800 | > 100000 | > 45500 | 44900 | > 60400 nM | > 100000 | > 82700 | > 94900 |  |  |  |  |  |  |  |  |  | 
2 | CCCN(CCC)c1c([N+](=O)[O-])cc(C(N)=O)cc1[N+](=O)[O-] | > 100000 | > 100000 | > 100000 | > 100000 | > 100000 | > 100000 | 53800 nM | > 100000 | > 100000 | > 100000 |  |  |  |  |  |  |  |  |  | 
3 | O=C1c2ccccc2-c2c1c1ccccc1c(=O)n2CCCNCCO | 6250 | 6680 | 5950 | 3750 | 3530 | 522 | 877 nM | 8350 | 7950 | 4390 | 454 nM | 330 nM | 1240 | 630 | 298 nM | 87.9 nM | 198 nM | 2380 nM | 284 nM | 1250
4 | CN(C)/C=C/C(=O)c1cccc(C(=O)/C=C/N(C)C)n1 | > 100000 | > 100000 | > 100000 | > 100000 | > 100000 | > 100000 | > 100000 nM | > 100000 | > 100000 | > 100000 |  |  |  |  |  |  |  |  |  | 
5 | CCN(CC)CCn1nc2c3c(cccc3c1=O)-c1ccccc1-2 | > 50000 | 13200 | 26000 | 10200 | > 50000 | 8460 | 4080 nM | 38700 | > 50000 | 10700 | 2070 nM | 1890 nM | 3330 | 1860 | 1780 nM | 1440 nM | 1510 nM | 2330 nM | 2030 nM | 1960
6 | CCCCOc1nc2ccccc2cc1C1CNC(=O)c2ccccc2N1 (centres undefined) | 18900 | 10600 | 24800 | 5630 | 5470 | 13500 | 18400 nM | 63000 | 14200 | > 100000 | 3770 nM | 3300 nM | 4770 | 2390 | 1920 nM | 2950 nM | 2790 nM | 5150 nM | 1260 nM | 8160
7 | COC(=O)CCCCCCCCC(=O)c1c(C)[nH]c(/C=C2\N=C(c3ccc[nH]3)C=C2OC)c1C | > 100000 | > 100000 | > 100000 | > 100000 | > 56000 | > 43600 | 5670 nM | > 100000 | > 34200 | 87800 | > 53800 nM | 32400 nM | > 85900 | > 100000 | 8090 nM | 755 nM | 1970 nM | > 100000 nM | 1080 nM | 14400
8 | CCC[CH2][Sn]1([CH2]CCC)[O]N=Cc2ccccc2[O]1 | 2540 | 3360 | 3510 | 1960 | 2730 | 1900 | 2830 nM | 2390 | 1330 | 2740 | 1270 nM | 1750 nM | 2030 | 713 | 1430 nM | 335 nM | 1460 nM | 1110 nM | 192 nM | 1310
9 | c1cc[c]([Sn]([O]c2cccc3cccnc23)([c]2ccccc2)[c]2ccccc2)cc1 | 29.3 | 95 | 34.3 | 30.2 | 19.8 | 40.2 | 42.2 nM | 170 | 52.1 | 117 | 15.1 nM | 31.1 nM | 14.6 | 16.1 | < 10 nM | 10.2 nM | 18.6 nM | 41.6 nM | < 10 nM | 33.4
10 | COC(=O)C12CC(NC(=O)c3csc([C@@H](C[C@H](C(C)C)N(C)C(=O)[C@@H](NC(=O)[C@H]4CCCCN4C)C(C)C)OC(C)=O)n3)(C1)C2 | > 33300 | 39.6 | > 33300 | 16.2 | > 33300 | > 33300 | 32.4 nM and 173 nM | > 33300 | > 33300 | > 33300 | 3 nM and 3.33 nM | 1.77 nM and 3.33 nM |  | 1.41 | 3.02 nM and 3.33 nM | 6.88 nM and 3.33 nM | 0.829 nM and 3.33 nM | 18 nM and 4.26 nM | 0.513 nM and 3.33 nM | > 33300
